In patent publication US20230085307A1, “PYRIDAZINONE COMPOUND AND HERBICIDE” (NISSAN CHEMICAL CORPORATION, priority 2019, published 2023):

Assays:
velvetleaf [1] = test: Test Example 4: herbicidal effect by soil treatment (Table 19, symbol M); assay type: in vivo, velvetleaf (Abutilon theophrasti); details: 320 g/ha
Summary of the method: (§1)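 Step 1: sow seeds in sterilized diluvial soil, cover ~1.5 cm. Step 2: spray diluted emulsion onto soil surface at predetermined rate. Step 3: greenhouse, 25–30° C, three weeks. Step 4: grade effect on each plant by earlier criteria.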

southern crabgrass [2] = test: Test Example 4: herbicidal effect by soil treatment (Table 19, symbol F); assay type: in vivo, southern crabgrass (Digitaria ciliaris); details: 320 g/ha
Summary of the method: as §1

barnyard grass [3] = test: Test Example 3: herbicidal effect by foliage application, Wagner pot (Table 18, symbol H); assay type: in vivo, barnyard grass (Echinochloa crus-galli); details: 320 g/ha
Summary of the method: (§2)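 Plants were sown in alluvial soil held under 0.1–0.5 cm standing water and grown 14 days in a greenhouse at 25–30 °C. An emulsifiable formulation, water-diluted to the set dose, was then sprayed onto the foliage, and effects were scored three weeks later using previously defined criteria.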

windgrass [4] = test: Test Example 5: herbicidal effect by foliage application, plastic box (Table 20, symbol L); assay type: in vivo, windgrass (Apera spica-venti); details: foliage application, 320 g/ha, 3 weeks after application
Summary of the method: (§3)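 Foliar spray test: emulsion formulation diluted in water to a set application rate, sprayed onto 14-day-old plants raised in diluvial soil at 25° C to 30° C under glass. Both herbicidal effect and crop effect rated visually three weeks later.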

Italian ryegrass = test: Test Example 5: herbicidal effect by foliage application, plastic box (Table 20, symbol K); assay type: in vivo, Italian ryegrass (Lolium multiflorum); details: foliage application, 320 g/ha, 3 weeks after application
Summary of the method: as §3

velvetleaf [5] = test: Test Example 5: herbicidal effect by foliage application, plastic box (Table 20, symbol M); assay type: in vivo, velvetleaf (Abutilon theophrasti); details: foliage application, 320 g/ha, 3 weeks after application
Summary of the method: as §3

lambsquarters [6] = test: Test Example 5: herbicidal effect by foliage application, plastic box (Table 20, symbol O); assay type: in vivo, lambsquarters (Chenopodium album); details: foliage application, 320 g/ha, 3 weeks after application
Summary of the method: as §3

Japanese bulrush [7] = test: Test Example 1: herbicidal activity, application before weed generation under submerged conditions (Table 16, symbol B); assay type: in vivo, Japanese bulrush (Schoenoplectus juncoides); details: 320 g/ha applied herbicide
Summary of the method: (§4)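 Emulsion formulation, water-diluted to set dose, was put onto the flooded surface (4 cm depth, alluvial soil) the same day weeds were sown and 2.5-leaf rice transplanted. After 3 weeks at 25-30 °C under glass, each species was rated 0 (≤5% kill) to 5 (≥90% kill).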

wild oat = test: Test Example 5: herbicidal effect by foliage application, plastic box (Table 20, symbol I); assay type: in vivo, wild oat (Avena fatua); details: foliage application, 320 g/ha, 3 weeks after application
Summary of the method: as §3

windgrass [8] = test: Test Example 4: herbicidal effect by soil treatment (Table 19, symbol L); assay type: in vivo, windgrass (Apera spica-venti); details: 320 g/ha
Summary of the method: as §1

late watergrass = test: Test Example 1: herbicidal activity, application before weed generation under submerged conditions (Table 16, symbol A); assay type: in vivo, late watergrass (Echinochloa oryzicola); details: 320 g/ha applied herbicide
Summary of the method: as §4

Chinese sprangletop = test: Test Example 3: herbicidal effect by foliage application, Wagner pot (Table 18, symbol D); assay type: in vivo, chinese sprangletop (Leptochloa chinensis); details: 320 g/ha
Summary of the method: as §2

lambsquarters [9] = test: Test Example 4: herbicidal effect by soil treatment (Table 19, symbol O); assay type: in vivo, lambsquarters (Chenopodium album); details: 320 g/ha
Summary of the method: as §1

Japanese bulrush [10] = test: Test Example 2: herbicidal activity, application during weed generation under submerged conditions (Table 17, symbol B); assay type: in vivo, Japanese bulrush (Schoenoplectus juncoides); details: AAH 320 g/ha; application during weed generation, submerged conditions
Summary of the method: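 Mixed weed seedlings in alluvial soil under a 4 cm water layer, greenhouse-grown at 25–30° C. Compound given as a diluted emulsion into the floodwater at the 1–2 leaf stage; response graded after three weeks.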

persian speedwell = test: Test Example 5: herbicidal effect by foliage application, plastic box (Table 20, symbol R); assay type: in vivo, Persian speedwell (Veronica persica); details: foliage application, 320 g/ha, 3 weeks after application
Summary of the method: as §3

southern crabgrass [11] = test: Test Example 5: herbicidal effect by foliage application, plastic box (Table 20, symbol F); assay type: in vivo, southern crabgrass (Digitaria ciliaris); details: foliage application, 320 g/ha, 3 weeks after application
Summary of the method: as §3

barnyard grass [12] = test: Test Example 4: herbicidal effect by soil treatment (Table 19, symbol H); assay type: in vivo, barnyard grass (Echinochloa crus-galli); details: 320 g/ha
Summary of the method: as §1

SMILES | herbicidal effect rating, M: velvetleaf (velvetleaf [1]) | herbicidal effect rating, F: southern crabgrass (southern crabgrass [2]) | herbicidal effect on H (barnyard grass), rating 0-5 (barnyard grass [3]) | effect on windgrass (L) (windgrass [4]) | effect on Italian ryegrass (K) (Italian ryegrass) | effect on velvetleaf (M) (velvetleaf [5]) | effect on lambsquarters (O) (lambsquarters [6]) | Herbicidal effect on B: Japanese bulrush (grade 0-5) (Japanese bulrush [7]) | effect on wild oat (I) (wild oat) | herbicidal effect rating, L: windgrass (windgrass [8]) | Herbicidal effect on A: late watergrass (grade 0-5) (late watergrass) | herbicidal effect on D (Chinese sprangletop), rating 0-5 (Chinese sprangletop) | herbicidal effect rating, O: lambsquarters (lambsquarters [9]) | herbicidal effect rating, B: Japanese bulrush (Japanese bulrush [10]) | effect on persian speedwell (R) (persian speedwell) | effect on southern crabgrass (F) (southern crabgrass [11]) | herbicidal effect rating, H: barnyard grass (barnyard grass [12])
CCCCCOc1ccc(-c2sc3ccc(F)cc3c2-c2c(OC(=O)CCC)c(C)nn(C)c2=O)cc1 [2-038] | 0 (Herbicidal rate of 5% or less (almost no effect)) | 0 (Herbicidal rate of 5% or less (almost no effect)) | 4 (Herbicidal rate of 70% or more and less than 90%) | 0 (Herbicidal rate of 5% or less (almost no effect)) | 0 (Herbicidal rate of 5% or less (almost no effect)) | 4 (Herbicidal rate of 70% or more and less than 90%) | 3 (Herbicidal rate of 40% or more and less than 70%) | 0 (Herbicidal rate of 5% or less (almost no effect)) | 0 (Herbicidal rate of 5% or less (almost no effect)) | 0 (Herbicidal rate of 5% or less (almost no effect)) | 3 (Herbicidal rate of 40% or more and less than 70%) | 4 (Herbicidal rate of 70% or more and less than 90%) | 1 (Herbicidal rate of 5% or more and less than 20%) | 0 (Herbicidal rate of 5% or less (almost no effect)) | 5 (Herbicidal rate of 90% or more (almost completely withered)) | 0 (Herbicidal rate of 5% or less (almost no effect)) | 0 (Herbicidal rate of 5% or less (almost no effect))
Cc1nn(C)c(=O)c(-c2c(-c3ccc(OC4CCCC4)cc3)sc3ccc(F)cc23)c1O [2-039] | 0 (Herbicidal rate of 5% or less (almost no effect)) | 0 (Herbicidal rate of 5% or less (almost no effect)) | 5 (Herbicidal rate of 90% or more (almost completely withered)) | 5 (Herbicidal rate of 90% or more (almost completely withered)) | 1 (Herbicidal rate of 5% or more and less than 20%) | 3 (Herbicidal rate of 40% or more and less than 70%) | 5 (Herbicidal rate of 90% or more (almost completely withered)) | 4 (Herbicidal rate of 70% or more and less than 90%) | 4 (Herbicidal rate of 70% or more and less than 90%) | 0 (Herbicidal rate of 5% or less (almost no effect)) | 3 (Herbicidal rate of 40% or more and less than 70%) | 5 (Herbicidal rate of 90% or more (almost completely withered)) | 0 (Herbicidal rate of 5% or less (almost no effect)) | 0 (Herbicidal rate of 5% or less (almost no effect)) | 5 (Herbicidal rate of 90% or more (almost completely withered)) | 4 (Herbicidal rate of 70% or more and less than 90%) | 0 (Herbicidal rate of 5% or less (almost no effect))
Cc1nn(C)c(=O)c(-c2c(-c3ccccc3OC(F)(F)F)sc3ccc(F)cc23)c1O [2-043] | 3 (Herbicidal rate of 40% or more and less than 70%) | 5 (Herbicidal rate of 90% or more (almost completely withered)) | 5 (Herbicidal rate of 90% or more (almost completely withered)) | 3 (Herbicidal rate of 40% or more and less than 70%) | 0 (Herbicidal rate of 5% or less (almost no effect)) | 5 (Herbicidal rate of 90% or more (almost completely withered)) | 4 (Herbicidal rate of 70% or more and less than 90%) | 2 (Herbicidal rate of 20% or more and less than 40%) | 2 (Herbicidal rate of 20% or more and less than 40%) | 0 (Herbicidal rate of 5% or less (almost no effect)) | 0 (Herbicidal rate of 5% or less (almost no effect)) | 3 (Herbicidal rate of 40% or more and less than 70%) | 5 (Herbicidal rate of 90% or more (almost completely withered)) | 2 (Herbicidal rate of 20% or more and less than 40%) | 5 (Herbicidal rate of 90% or more (almost completely withered)) | 4 (Herbicidal rate of 70% or more and less than 90%) | 4 (Herbicidal rate of 70% or more and less than 90%)
CCCC(=O)Oc1c(C)nn(C)c(=O)c1-c1c(-c2ccccc2OC(F)(F)F)sc2ccc(F)cc12 [2-044] | 3 (Herbicidal rate of 40% or more and less than 70%) | 3 (Herbicidal rate of 40% or more and less than 70%) | 3 (Herbicidal rate of 40% or more and less than 70%) | 4 (Herbicidal rate of 70% or more and less than 90%) | 0 (Herbicidal rate of 5% or less (almost no effect)) | 5 (Herbicidal rate of 90% or more (almost completely withered)) | 1 (Herbicidal rate of 5% or more and less than 20%) | 0 (Herbicidal rate of 5% or less (almost no effect)) | 3 (Herbicidal rate of 40% or more and less than 70%) | 0 (Herbicidal rate of 5% or less (almost no effect)) | 3 (Herbicidal rate of 40% or more and less than 70%) | 2 (Herbicidal rate of 20% or more and less than 40%) | 5 (Herbicidal rate of 90% or more (almost completely withered)) | 3 (Herbicidal rate of 40% or more and less than 70%) | 5 (Herbicidal rate of 90% or more (almost completely withered)) | 4 (Herbicidal rate of 70% or more and less than 90%) | 3 (Herbicidal rate of 40% or more and less than 70%)
